{"source": "patent US9107926B2", "about": "“Mutant selectivity and combinations of a phosphoinositide 3-kinase inhibitor compound and chemotherapeutic agents for the treatment of cancer” (Genentech, Inc., priority 2012, dated 2015)", "key": {"[1]": {"system": "MCF-7 neo/HER2 breast cancer tumor xenografts", "experiment": "In vivo mouse tumor xenograft efficacy", "set-up": "species or system mice", "experimental": "(§1) Xenografts were initiated with cancer cells. […] Volume was calculated using the formula: […]"}, "[2]": {"system": "cancer cell lines", "experiment": "cell proliferation assays across cancer cell lines (FIGS. 1-3, 12)", "type": "cell-based", "details": "EC50, cell proliferation assays", "from_the_text": "EC50 values were established for the experiments."}, "[3]": {"system": "HCC1954.x1 breast tumor xenografts", "experiment": "In vivo mouse tumor xenograft efficacy", "set-up": "species or system mice", "details": "150 mg/kg; QD x 21; PO", "experimental": "The term uL means microliter.\nas §1"}, "[4]": {"target": "PI3K alpha H1047R mutant (Homo sapiens, UniProt P42336, H1047R)", "sequence (P42336 whole entry H1047R)": "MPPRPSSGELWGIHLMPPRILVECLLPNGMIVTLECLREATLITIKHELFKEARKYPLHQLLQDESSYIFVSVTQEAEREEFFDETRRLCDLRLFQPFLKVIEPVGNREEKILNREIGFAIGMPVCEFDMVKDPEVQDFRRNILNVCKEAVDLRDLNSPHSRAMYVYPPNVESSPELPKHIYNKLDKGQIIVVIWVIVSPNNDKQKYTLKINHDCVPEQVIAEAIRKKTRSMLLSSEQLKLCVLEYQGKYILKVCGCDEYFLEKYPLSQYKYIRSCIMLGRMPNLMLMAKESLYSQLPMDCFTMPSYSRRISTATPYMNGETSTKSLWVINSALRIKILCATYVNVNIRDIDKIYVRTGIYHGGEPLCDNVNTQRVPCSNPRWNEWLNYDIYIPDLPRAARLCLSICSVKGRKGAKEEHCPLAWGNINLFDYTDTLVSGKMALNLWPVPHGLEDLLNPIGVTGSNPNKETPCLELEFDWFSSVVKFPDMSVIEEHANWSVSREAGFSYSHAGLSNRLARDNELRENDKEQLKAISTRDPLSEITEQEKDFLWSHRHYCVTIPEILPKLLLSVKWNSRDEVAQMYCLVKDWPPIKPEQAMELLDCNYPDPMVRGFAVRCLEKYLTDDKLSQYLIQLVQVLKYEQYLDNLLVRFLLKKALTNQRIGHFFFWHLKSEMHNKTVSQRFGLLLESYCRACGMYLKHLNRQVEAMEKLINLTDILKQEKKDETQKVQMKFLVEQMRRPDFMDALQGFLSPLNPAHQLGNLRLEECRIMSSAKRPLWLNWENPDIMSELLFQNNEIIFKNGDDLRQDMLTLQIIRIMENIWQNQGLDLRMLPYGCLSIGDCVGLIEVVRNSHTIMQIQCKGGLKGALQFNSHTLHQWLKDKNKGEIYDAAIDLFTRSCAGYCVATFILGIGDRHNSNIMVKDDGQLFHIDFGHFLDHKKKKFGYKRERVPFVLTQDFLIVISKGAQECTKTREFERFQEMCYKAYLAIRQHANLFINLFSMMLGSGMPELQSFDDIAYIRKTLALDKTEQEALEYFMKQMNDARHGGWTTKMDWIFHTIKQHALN", "sequence (P27986 whole entry partner)": "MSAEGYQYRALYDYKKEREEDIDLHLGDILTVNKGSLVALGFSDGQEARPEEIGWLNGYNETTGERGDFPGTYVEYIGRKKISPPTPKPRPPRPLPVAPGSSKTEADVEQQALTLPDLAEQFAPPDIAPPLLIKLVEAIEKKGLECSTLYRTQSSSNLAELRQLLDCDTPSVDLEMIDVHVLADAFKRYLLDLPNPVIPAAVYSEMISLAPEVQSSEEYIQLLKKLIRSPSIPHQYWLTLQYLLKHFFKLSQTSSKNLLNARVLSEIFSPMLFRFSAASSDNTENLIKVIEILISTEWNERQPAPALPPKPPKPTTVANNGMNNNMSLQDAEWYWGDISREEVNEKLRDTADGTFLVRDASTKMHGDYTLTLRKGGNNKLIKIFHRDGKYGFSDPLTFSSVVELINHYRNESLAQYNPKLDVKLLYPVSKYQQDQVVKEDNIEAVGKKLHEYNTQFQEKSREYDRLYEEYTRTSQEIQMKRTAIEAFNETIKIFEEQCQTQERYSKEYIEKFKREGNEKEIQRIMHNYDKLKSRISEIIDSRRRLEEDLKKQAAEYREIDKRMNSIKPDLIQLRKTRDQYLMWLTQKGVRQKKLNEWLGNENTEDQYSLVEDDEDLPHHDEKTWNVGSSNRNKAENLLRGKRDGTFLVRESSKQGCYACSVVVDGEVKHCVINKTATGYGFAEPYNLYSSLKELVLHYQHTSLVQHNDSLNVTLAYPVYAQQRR", "details": "relative to PI3K alpha; Folkes et al (2008); cited from earlier work"}, "[5]": {"target": "PI3K alpha E545K mutant (Homo sapiens, UniProt P42336, E545K)", "sequence (P42336 whole entry E545K)": "as the sequence (P42336 whole entry H1047R) above, with E545K, R1047H counted along it", "sequence (P27986 whole entry partner)": "as the sequence (P27986 whole entry partner) above", "details": "relative to PI3K alpha; Folkes et al (2008); cited from earlier work"}, "[6]": {"system": "Endocrine-resistant MCF7-ARO cells", "experiment": "4 day CellTiter-Glo assay in endocrine resistant cells", "type": "cell-based, human", "details": "FIG. 40A", "text": "Endocrine-resistant MCF7-ARO cells were obtained by letrozole dose escalation over about 4 months."}, "[7]": {"system": "MCF7-ARO cells", "experiment": "modulation of PI3K pathway and ER pathway markers and apoptosis induction", "type": "cell-based, human", "details": "Twenty-four hour treatment", "text": "Aromatase-expressing MCF7 cells convert androstenedione to estrogen in culture."}}, "data": [{"smiles": "CC(=O)O[C@@]12CO[C@@H]1C[C@H](O)[C@@]1(C)C(=O)[C@H](O)C3=C(C)[C@@H](OC(=O)[C@H](O)[C@@H](NC(=O)OC(C)(C)C)c4ccccc4)C[C@@](O)([C@@H](OC(=O)c4ccccc4)[C@H]21)C3(C)C", "note": "[Docetaxel, (2R,3S)—N-carboxy-3-phenylisoserine, N-tert-butyl ester, 13-ester with 5,20-epoxy-1,2,4,7,10,13-hexahydroxytax-11-en-9-one 4-acetate 2-benzoate, trihydrate, reference compound]", "values": [{"measurement": "% TGI@ day 21", "setting": "[1]; QW, 7.5 mg/kg", "result": 69, "unit": "%"}]}, {"smiles": "CS(=O)(=O)N1CCN(Cc2cc3nc(-c4cccc5[nH]ncc45)nc(N4CCOCC4)c3s2)CC1", "note": "[GDC-0941, 4-(2-(1H-indazol-4-yl)-6-((4-(methylsulfonyl)piperazin-1-yl)methyl)thieno[3,2-d]pyrimidin-4-yl)morpholine, reference compound]", "values": [{"measurement": "sensitivity of cancer cell lines with HER2 amplification versus those without HER2 amplification", "setting": "[2]", "result": 9, "unit": "times"}, {"measurement": "% TGI@ day 21", "setting": "[3]", "result": 90, "unit": "%"}, {"measurement": "% TGI@ day 21", "setting": "[1]; QD, 150 mg/kg", "result": 80, "unit": "%"}, {"measurement": "PI3K alpha H1047R mutant", "setting": "[4]", "result": 1, "unit": "x"}, {"measurement": "PI3K alpha E545K mutant", "setting": "[5]", "result": 1, "unit": "x"}]}, {"smiles": "C=C1C[C@@H]2[C@H](CC[C@]3(C)C(=O)CC[C@@H]23)[C@@]2(C)C=CC(=O)C=C12", "note": "[exemestane]", "values": [{"measurement": "resistance of endocrine-resistant cells", "setting": "[6]", "result": "resistant"}]}, {"smiles": "C[C@]12CC[C@@H]3c4ccc(O)cc4C[C@@H](CCCCCCCCC[S+]([O-])CCCC(F)(F)C(F)(F)F)[C@H]3[C@@H]1CC[C@@H]2O", "note": "(some centres unmarked) [fulvestrant, (7a,1713)-7-{9-[(4,4,5,5,5-pentafluoropentyl)sulfinyl]nonyl}estra-1,3,5(10)-triene-3,17-diol]", "values": [{"measurement": "resistance of endocrine-resistant cells", "setting": "[6]", "result": "resistant"}]}, {"smiles": "N#Cc1ccc(C(c2ccc(C#N)cc2)n2cncn2)cc1", "note": "[letrozole, 4,4′-((1H-1,2,4-triazol-1-yl)methylene)dibenzonitrile]", "values": [{"measurement": "resistance of endocrine-resistant cells", "setting": "[6]", "result": "resistant"}, {"measurement": "PI3K and ER pathway markers", "setting": "[7]", "result": "increases HER2 and pAkt, but decreases pmTOR and pp 70S6K"}]}, {"smiles": "CC/C(=C(\\c1ccccc1)c1ccc(OCCN(C)C)cc1)c1ccccc1", "note": "[tamoxifen, (Z)-2-[4-(1,2-diphenylbut-1-enyl)phenoxy]-N,N-dimethylethanamine]", "values": [{"measurement": "resistance of endocrine-resistant cells", "setting": "[6]", "result": "resistant"}]}]}
